Tests used:
[1] = tested on: caspase-3/7 activation in H441 cells; assay: Caspase-3 immunoblotting and Apo-One caspase-3/7 assay in H441 cells; type: cell-based, human
[2] = tested on: Human lung adenocarcinoma cell line NCI-H441; assay: In vitro anti-proliferative activity in H441 cells (hexosaminidase), Example 2; type: cell-based
Experimental: Human lung adenocarcinoma cell line NCI-H441 (ATCC # HTB-174) and normal lung fibroblasts LL-24 (ATCC #CCL-151) were obtained from American Type Culture Collection (Manassas, Va.). The cells were maintained at 37° C. with 5% CO2 in RPMI 1640 medium (Invitrogen, Carlsbad, Calif.). The medium was supplemented with 10% heat-inactivated fetal bovine serum and 50 μg/ml of gentamicin (GIBCO Laboratories, Grand Island, N.Y.). For cell proliferation assay, the cells were seeded in 96-well flat-bottom tissue culture plates at a density of 0.5−1×10^4 cells per well. The cells were allowed to adhere and grow overnight, followed by treatment with CLEFMA or CLEFMA-liposomes. The concentration of CLEFMA was maintained in the range of 0.1-25 μM in 100 μl of RPMI 1640 medium. For comparison, the cells were also treated with 1 and 10 μM natural curcumin and EF24. EF24 is a potent synthetic curcuminoid and a close analog of CLEFMA [Adams et al., 2004]. All solutions of plain drugs were made in dimethylsulfoxide (DMSO). The concentration of DMSO in the treatment medium was maintained at 0.1%. The control wells received equivalent amounts of DMSO or phospholipid-matched control liposomes. Inhibition of cell proliferation was determined by measuring a decrease in hexosaminidase activity as described by Landegren [Landegren, 1984]. Para-nitrophenol-N-acetyl-beta-D-glucosaminide (60 μl per well) was used as the substrate for the hexosaminidase enzyme. The results of hexosaminidase assay were also confirmed by visualization of cultured cells under a microscope.

H441 cells = assay: GSH/GSSG assay in H441 cells; type: cell-based, human; details: 12 and 24 h
Experimental: Glutathione-to-glutathione disulfide (GSH/GSSG) assay: In order to assess the effect of CLEFMA on cellular GSH levels, a kit from Oxford Biomedical Research (Oxford, Mich.) was used and followed a modification of the method reported elsewhere (NCL Method GTA-3, Nanotechnology Characterization Lab, Frederick, Md.). H441 were seeded in a 12-well plate (1 million cells/well) and treated with CLEFMA for 12 and 24 h. The medium was removed and the cell layer was washed twice with ice-cold PBS. After adding 100 μl of ice-cold 5% m-phosphoric acid, the cells were scraped into a microfuge tube and centrifuged at 1000×g at 4° C. for 10 min. The supernatant was removed to a fresh tube for the GSSG and GSH assays. For the GSSG determination, approximately 30 μl supernatant was mixed with 20 μl thiol scavenger and 130 μl ice-cold assay buffer, and for the GSH assay, approximately 5 μl of the supernatant was diluted in 180 μl with ice-cold assay buffer. […] The plate was read in a microplate reader at 405-414 nm at 0 and 10 min after DTNB was added. The GSH and GSSG concentrations were determined following a linear regression analysis and normalized to total protein. The ratio (GSH−2GSSG)/GSSG was calculated and expressed as the percent of untreated control cells.

[3] = tested on: colon (HCT-116) cancer cells; assay: Proliferation of colon cancer HCT-116 cells; type: cell-based
[4] = tested on: PC-3 (prostate cancer) cells; assay: Cell proliferation study in PC-3 cells; type: cell-based
Experimental: Cell Culture and drug treatment: Human lung adenocarcinoma cell line NCI-H441 (ATCC Number: HTB-174) was obtained from the American Type Culture Collection (Manassas, Va.). H441 cells were maintained at 37° C. with 5% CO2 in McCoy's 5A Medium (Invitrogen, Carlsbad, Calif.) supplemented with 5% heat-inactivated fetal bovine serum (FBS). All media contained gentamicin at 50 μg/ml (GIBCO Laboratories, Grand Island, N.Y.). Other cells lines (PANC-1, MiaPaCa-2 and PC-3) were also similarly maintained, except that the cell culture medium was RPMI 1640 instead of McCoy's.
To evaluate the anti-proliferative activity of synthesized bis(2-fluorobenzylidene)-4-piperidone and its derivatives, the cells were seeded in 96-well flat-bottom tissue culture plates at a density of 10×10^3 cells per well. The cells were allowed to attach and grow overnight. The test compounds were solubilized in dimethyl sulfoxide (DMSO), filtered through 0.2 μm nylon filter and added to cells at 1, 10, 25 and 100 μM concentrations in culture medium supplemented with 5% FBS. […]
Cell Proliferation: The total number of cells after the treatment period was estimated by the hexosaminidase assay. […] The absorbance was measured at 405 nm. […] The data were analyzed as percent of control, where the control wells were treated with equivalent amounts of DMSO alone, and the analyzed data was presented as average±standard error of mean. […]

[5] = Octanol-water partition coefficient (pre-formulation); type: physicochemical
Text: The pre-formulation studies on CLEFMA depicted it as a highly hydrophobic drug with octanol-water partition coefficient of 5.66. It was hypothesized that liposomes might serve as a vehicle for CLEFMA preparation meant for parenteral administration. Parenteral liposome formulations of lipophilic drugs are challenging. Incorporation of a lipid-partitioning drug in liposomes may produce structurally instable liposomes, resulting in burst-release of drug, rapid clearance from the body, and/or overall poor efficacy. The entrapment of cyclodextrin (CD)-based inclusion complexes (IC) inside the liposomes can be a reliable and effective method of encapsulation of hydrophobic drugs. This strategy was first reported by Gregoriades [McCormack et al., 1994], and has recently been used for the encapsulation of isotretinoin [Kaur et al., 2010].

O=C(O)C=CC(=O)N1CC(=Cc2ccccc2Cl)C(=O)C(=Cc2ccccc2Cl)C1 [Compound 29, 4-[3,5-Bis-(2-chlorobenzylidene)-4-oxo-piperidin-1-yl]-4-oxo-2-butenoic acid]
caspase-3 activation level (immunoblotting) ([1]; H441 cell lysates): no change in its activation level | cleavage-based caspase activation (Apo-One caspase-3/7 assay) ([1]; H441 cells): no cleavage-based caspase activation was seen | anti-proliferative activity in H441 cells [2]: more potent than curcumin and another synthetic curcuminoid EF24 | H441 cells surviving ([2]; 24 h treatment with 10 μM): Less than 40% | GSH/GSSG ratio (H441 cells): strong dose-dependent reduction of the GSH/GSSG ratio | control of proliferation [3]: equally potent in controlling proliferation | potency of antiproliferative action [4]: enhanced the potency of antiproliferative action | octanol-water partition coefficient [5]: 5.66
